Assay results published in PMC11606603, “The membrane domains of mammalian adenylyl cyclases are lipid receptors” (eLife, 2024).
Several values for one entry are separate records, joined by “and”; a condition that tells them apart may be missing. Identical values can stand only once.

Tests used:
Format in all cases: biochemical
mAC9 = molecular target: T1, mAC9 (Homo sapiens, UniProt O60503); assay: AC assay, Gsα-stimulated mAC9 in membranes from transfected HEK293 cells; conditions: 20 µM fatty acid; 300 nM Gsα; single experiments
T1 construct: Human mAC genes were from GenScript and fitted with a C-terminal FLAG-tag; FLAG (C); made in house; host or cells: HEK293, permanently transfected; membrane preparation
Protocol: (§1) hAC sequences were from NCBI were: ADCY1: NM_021116.3; ADCY2: NM_020546.2; ADCY3: NM_004036.4; ADCY4: NM_001198568.2; ADCY5: NM_183357.2; ADCY6: NM_015270.4; ADCY7: NM_001114.4; ADCY8: NM_001115.2; ADCY9: NM_001116.3. Human mAC genes were from GenScript and fitted with a C-terminal FLAG-tag. […] The gene was synthesized by GenScript. HEK293 cells were maintained in Dulbeccos Modified Eagle Medium (DMEM) with 10% fetal bovine serum at 37°C and 5% CO2. Transfection with AC plasmids was with PolyJet (SignaGen, Frederick, MD, USA). Permanent cell lines were generated by selection for 7 days with 600 µg/ml G418 and maintained with 300 µg/ml For membrane preparation, cells were tyrpsinized, collected by centrifugation (3000 × g, 5 min) and lysed and homogenized in 20 mM HEPES, pH 7.5, 1 mM Ethylenediaminetetraacetic acid (EDTA), 2 mM MgCl2, 1 mM Dithiothreitol (DTT), one tablet of cOmplete, EDTA-free (per 50 ml) and 250 mM sucrose by 20 strokes in a potter homogenizer on ice. Debris was removed (5 min at 1000 × g, 0°C), membranes were collected at 100,000 × g, 60 min at 0°C, suspended and stored at −80°C in 20 mM MOPS, pH 7.5, 0.5 mM EDTA, 2 mM MgCl2. […] Three cerebral cortices were dissected and homogenized in 4.5 ml cold 48 mM Tris–HCl, pH 7.4, 12 mM MgC1_2, and 0.1 mM Ethylene glycol-bis(β-aminoethyl ether)-N,N,N′,N′-tetraacetic acid (EGTA) with a Polytron hand disperser (Kinematica AG, Switzerland). […] The pellet was washed once with 5 ml 1 mM KHCO3. The final suspension in 2 ml 1 mM KHCO3 was stored in aliquots at −80°C.
(§2) In a volume of 10 μl, AC activities were measured using 1 mM ATP, 2 mM MgCl2, 3 mM creatine phosphate, 60 μg/ml creatine kinase, and 50 mM MOPS pH 7.5. The cAMP assay kit from Cisbio (Codolet, France) was used for detection according to the supplier’s instructions. For each assay, a cAMP standard curve was established. EC50 and IC50 values were calculated by GraphPad Prism version 8.4.3 for Windows, GraphPad Software, San Diego, CA, USA, https://www.graphpad.com .

mAC8 = molecular target: T2, mAC8 (Homo sapiens, UniProt P40145); assay: AC assay, Gsα-stimulated mAC8 in membranes from transfected HEK293 cells; conditions: 20µM fatty acid concentration
T2 construct: Human mAC genes were from GenScript and fitted with a C-terminal FLAG-tag; FLAG (C); made in house; host or cells: HEK293, permanently transfected; membrane preparation
Protocol: as §1, §2

mAC4 = molecular target: T3, mAC4 (Homo sapiens, UniProt Q8NFM4); assay: AC assay, Gsα-stimulated mAC4 in membranes from transfected HEK293 cells; conditions: 20 µM fatty acid; 300 nM Gsα; single experiments
T3 construct: Human mAC genes were from GenScript and fitted with a C-terminal FLAG-tag; FLAG (C); made in house; host or cells: HEK293, permanently transfected; membrane preparation
T3 sequence (Q8NFM4 1-1077): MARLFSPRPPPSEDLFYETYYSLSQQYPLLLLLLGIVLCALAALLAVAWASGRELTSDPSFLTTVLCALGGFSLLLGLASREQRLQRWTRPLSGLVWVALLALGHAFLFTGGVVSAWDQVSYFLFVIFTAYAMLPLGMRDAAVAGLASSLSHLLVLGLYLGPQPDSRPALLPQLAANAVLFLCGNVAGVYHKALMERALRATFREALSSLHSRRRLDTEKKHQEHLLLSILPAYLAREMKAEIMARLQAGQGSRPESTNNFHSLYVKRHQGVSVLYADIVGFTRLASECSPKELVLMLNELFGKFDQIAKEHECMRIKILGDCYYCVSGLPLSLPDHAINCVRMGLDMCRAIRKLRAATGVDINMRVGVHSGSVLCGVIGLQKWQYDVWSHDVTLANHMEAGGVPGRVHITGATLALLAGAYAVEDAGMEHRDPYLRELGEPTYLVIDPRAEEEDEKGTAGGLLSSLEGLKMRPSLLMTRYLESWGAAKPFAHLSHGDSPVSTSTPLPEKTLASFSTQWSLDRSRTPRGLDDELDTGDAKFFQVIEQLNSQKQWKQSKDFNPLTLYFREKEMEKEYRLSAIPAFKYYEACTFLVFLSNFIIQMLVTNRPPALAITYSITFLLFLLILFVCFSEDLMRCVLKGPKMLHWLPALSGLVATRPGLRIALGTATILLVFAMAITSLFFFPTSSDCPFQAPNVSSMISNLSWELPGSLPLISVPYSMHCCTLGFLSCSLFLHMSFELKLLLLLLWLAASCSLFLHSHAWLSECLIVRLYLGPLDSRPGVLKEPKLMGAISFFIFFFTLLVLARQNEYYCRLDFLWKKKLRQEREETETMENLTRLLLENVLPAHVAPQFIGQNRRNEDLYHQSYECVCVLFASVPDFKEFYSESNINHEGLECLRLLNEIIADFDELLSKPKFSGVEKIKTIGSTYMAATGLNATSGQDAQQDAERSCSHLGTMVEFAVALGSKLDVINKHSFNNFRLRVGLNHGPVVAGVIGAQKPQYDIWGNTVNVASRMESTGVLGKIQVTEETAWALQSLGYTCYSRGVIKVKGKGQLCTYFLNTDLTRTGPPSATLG
Protocol: as §1, §2

mAC2 = molecular target: T4, mAC2 (Homo sapiens, UniProt Q08462); assay: AC assay, Gsα-stimulated mAC2 in membranes from transfected HEK293 cells; conditions: Figure 5-figure supplement 1 left, 20 µM
T4 construct: Human mAC genes were from GenScript and fitted with a C-terminal FLAG-tag; FLAG (C); made in house; host or cells: HEK293, permanently transfected; membrane preparation
Protocol: as §1, §2

mAC3 = molecular target: T5, mAC3 (Homo sapiens, UniProt O60266); assay: AC assay, Gsα-stimulated mAC3 in membranes from transfected HEK293 cells; conditions: fatty acid 20 µM; individual experiments
T5 construct: Human mAC genes were from GenScript and fitted with a C-terminal FLAG-tag; FLAG (C); made in house; host or cells: HEK293, permanently transfected; membrane preparation
Protocol: as §1, §2

mAC7 = molecular target: T6, mAC7 (Homo sapiens, UniProt P51828); assay: AC assay, Gsα-stimulated mAC7 in membranes from transfected HEK293 cells; conditions: Figure 5-figure supplement 2 left, 20 µM
T6 construct: Human mAC genes were from GenScript and fitted with a C-terminal FLAG-tag; FLAG (C); made in house; host or cells: HEK293, permanently transfected; membrane preparation
Protocol: as §1, §2

mAC1 = molecular target: T7, mAC1 (Homo sapiens, UniProt Q08828); assay: AC assay, Gsα-stimulated mAC1 in membranes from transfected HEK293 cells; conditions: 20 µM fatty acid; 300 nM Gsα; single experiments
T7 construct: Human mAC genes were from GenScript and fitted with a C-terminal FLAG-tag; FLAG (C); made in house; host or cells: HEK293, permanently transfected; membrane preparation
Protocol: as §1, §2

mAC6 = molecular target: T8, mAC6 (Homo sapiens, UniProt O43306); assay: AC assay, Gsα-stimulated mAC6 in membranes from transfected HEK293 cells; conditions: 20µM fatty acid concentration
T8 construct: Human mAC genes were from GenScript and fitted with a C-terminal FLAG-tag; FLAG (C); made in house; host or cells: HEK293, permanently transfected; membrane preparation
Protocol: as §1, §2

mAC5 = molecular target: T9, mAC5 (Homo sapiens, UniProt O95622); assay: AC assay, Gsα-stimulated mAC5 in membranes from transfected HEK293 cells; conditions: 20µM fatty acid concentration
T9 construct: Human mAC genes were from GenScript and fitted with a C-terminal FLAG-tag; FLAG (C); made in house; host or cells: HEK293, permanently transfected; membrane preparation
Protocol: as §1, §2

T2 sequence (P40145 whole entry): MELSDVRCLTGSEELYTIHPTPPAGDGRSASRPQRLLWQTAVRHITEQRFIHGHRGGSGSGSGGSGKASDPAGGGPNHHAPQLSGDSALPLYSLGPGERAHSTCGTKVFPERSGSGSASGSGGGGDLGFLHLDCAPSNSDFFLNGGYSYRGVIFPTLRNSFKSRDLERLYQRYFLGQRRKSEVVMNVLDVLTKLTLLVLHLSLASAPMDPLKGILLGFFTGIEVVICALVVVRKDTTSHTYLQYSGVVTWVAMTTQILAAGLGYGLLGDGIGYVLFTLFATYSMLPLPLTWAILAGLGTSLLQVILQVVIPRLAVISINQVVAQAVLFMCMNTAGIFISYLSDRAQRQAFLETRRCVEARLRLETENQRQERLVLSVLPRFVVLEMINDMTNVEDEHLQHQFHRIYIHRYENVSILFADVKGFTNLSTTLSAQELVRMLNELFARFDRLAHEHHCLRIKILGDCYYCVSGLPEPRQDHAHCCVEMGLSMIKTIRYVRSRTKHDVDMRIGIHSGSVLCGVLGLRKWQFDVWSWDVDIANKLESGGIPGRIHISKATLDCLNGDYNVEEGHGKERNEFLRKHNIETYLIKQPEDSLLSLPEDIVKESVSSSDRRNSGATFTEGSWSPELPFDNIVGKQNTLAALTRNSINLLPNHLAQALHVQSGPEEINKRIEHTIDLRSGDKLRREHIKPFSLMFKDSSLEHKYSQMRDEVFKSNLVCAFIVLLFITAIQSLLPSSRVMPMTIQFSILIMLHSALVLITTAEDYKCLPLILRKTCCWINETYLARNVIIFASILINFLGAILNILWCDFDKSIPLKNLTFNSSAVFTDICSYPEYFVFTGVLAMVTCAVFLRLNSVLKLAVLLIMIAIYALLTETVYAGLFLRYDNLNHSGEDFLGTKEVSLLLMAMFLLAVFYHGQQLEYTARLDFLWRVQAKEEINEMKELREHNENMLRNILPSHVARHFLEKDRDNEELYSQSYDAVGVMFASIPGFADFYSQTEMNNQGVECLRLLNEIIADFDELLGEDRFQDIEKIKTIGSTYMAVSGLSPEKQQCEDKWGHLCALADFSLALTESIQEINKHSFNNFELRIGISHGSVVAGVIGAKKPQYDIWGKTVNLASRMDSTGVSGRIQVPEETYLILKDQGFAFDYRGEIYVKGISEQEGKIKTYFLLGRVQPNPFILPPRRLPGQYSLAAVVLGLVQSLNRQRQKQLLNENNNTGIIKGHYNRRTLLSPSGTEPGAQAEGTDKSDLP
T7 sequence (Q08828 whole entry): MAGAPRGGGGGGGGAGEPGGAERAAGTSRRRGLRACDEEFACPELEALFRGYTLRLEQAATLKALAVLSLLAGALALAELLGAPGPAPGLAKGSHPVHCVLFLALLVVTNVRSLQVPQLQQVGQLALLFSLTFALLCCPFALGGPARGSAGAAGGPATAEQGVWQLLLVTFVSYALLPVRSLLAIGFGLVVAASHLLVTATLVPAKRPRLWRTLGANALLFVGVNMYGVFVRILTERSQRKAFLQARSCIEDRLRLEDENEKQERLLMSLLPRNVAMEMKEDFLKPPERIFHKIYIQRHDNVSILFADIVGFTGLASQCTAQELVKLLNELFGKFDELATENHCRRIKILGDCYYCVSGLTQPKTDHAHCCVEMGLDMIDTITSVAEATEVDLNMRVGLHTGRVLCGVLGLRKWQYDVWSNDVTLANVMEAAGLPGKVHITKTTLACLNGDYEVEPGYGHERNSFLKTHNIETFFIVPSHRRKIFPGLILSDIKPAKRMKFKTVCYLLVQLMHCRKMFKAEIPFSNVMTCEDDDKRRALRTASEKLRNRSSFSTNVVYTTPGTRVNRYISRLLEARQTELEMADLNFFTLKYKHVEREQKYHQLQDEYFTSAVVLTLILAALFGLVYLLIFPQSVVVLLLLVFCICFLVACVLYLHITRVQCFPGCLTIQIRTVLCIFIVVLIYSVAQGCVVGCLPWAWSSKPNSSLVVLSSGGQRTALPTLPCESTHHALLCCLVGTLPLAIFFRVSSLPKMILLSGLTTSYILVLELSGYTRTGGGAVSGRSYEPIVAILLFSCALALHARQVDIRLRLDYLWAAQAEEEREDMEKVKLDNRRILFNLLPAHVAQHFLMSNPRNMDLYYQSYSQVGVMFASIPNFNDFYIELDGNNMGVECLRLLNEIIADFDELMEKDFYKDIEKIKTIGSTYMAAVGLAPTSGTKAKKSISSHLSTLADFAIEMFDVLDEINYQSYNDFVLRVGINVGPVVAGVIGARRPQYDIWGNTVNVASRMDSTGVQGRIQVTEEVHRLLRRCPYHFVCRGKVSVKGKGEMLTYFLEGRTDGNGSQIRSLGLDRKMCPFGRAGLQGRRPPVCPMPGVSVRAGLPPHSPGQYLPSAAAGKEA
T6 sequence (P51828 whole entry): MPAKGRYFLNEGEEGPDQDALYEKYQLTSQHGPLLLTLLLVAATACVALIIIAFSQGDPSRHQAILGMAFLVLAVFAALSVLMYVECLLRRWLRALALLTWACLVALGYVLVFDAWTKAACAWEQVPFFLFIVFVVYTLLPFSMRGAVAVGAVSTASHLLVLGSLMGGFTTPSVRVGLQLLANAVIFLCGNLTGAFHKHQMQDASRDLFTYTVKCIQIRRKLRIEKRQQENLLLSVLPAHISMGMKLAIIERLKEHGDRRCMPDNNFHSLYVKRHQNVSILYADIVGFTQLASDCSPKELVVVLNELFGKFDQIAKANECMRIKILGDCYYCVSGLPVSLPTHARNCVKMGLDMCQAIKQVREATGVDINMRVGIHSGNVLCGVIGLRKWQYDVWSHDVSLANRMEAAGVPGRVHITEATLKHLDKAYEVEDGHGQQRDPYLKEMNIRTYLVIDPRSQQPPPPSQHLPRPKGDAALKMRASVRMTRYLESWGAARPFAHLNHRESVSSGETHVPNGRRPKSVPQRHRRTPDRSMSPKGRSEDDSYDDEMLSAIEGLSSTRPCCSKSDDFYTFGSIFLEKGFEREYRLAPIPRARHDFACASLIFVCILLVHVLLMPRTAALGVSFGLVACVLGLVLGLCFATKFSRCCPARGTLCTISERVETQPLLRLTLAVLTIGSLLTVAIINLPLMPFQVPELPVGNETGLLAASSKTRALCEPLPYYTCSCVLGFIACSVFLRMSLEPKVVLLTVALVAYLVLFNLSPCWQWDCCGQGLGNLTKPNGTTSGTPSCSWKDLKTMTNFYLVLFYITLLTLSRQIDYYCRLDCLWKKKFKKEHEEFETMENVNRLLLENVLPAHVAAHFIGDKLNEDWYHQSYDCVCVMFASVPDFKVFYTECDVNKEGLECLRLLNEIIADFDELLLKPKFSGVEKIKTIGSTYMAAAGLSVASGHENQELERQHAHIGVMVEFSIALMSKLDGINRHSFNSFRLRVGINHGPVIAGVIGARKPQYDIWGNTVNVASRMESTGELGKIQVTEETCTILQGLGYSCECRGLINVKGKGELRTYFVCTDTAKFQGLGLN
T6 sequence (P63092 2-394 Q227L partner): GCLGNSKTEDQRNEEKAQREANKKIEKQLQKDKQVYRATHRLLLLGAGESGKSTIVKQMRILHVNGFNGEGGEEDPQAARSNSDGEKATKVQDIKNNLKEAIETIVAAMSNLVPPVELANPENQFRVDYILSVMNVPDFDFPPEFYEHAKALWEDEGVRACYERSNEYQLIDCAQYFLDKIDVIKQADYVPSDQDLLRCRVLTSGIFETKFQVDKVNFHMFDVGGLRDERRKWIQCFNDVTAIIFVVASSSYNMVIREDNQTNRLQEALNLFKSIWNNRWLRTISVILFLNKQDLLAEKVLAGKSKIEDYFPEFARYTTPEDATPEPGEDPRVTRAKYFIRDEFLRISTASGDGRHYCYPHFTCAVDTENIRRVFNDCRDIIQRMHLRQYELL
T8 sequence (O43306 whole entry): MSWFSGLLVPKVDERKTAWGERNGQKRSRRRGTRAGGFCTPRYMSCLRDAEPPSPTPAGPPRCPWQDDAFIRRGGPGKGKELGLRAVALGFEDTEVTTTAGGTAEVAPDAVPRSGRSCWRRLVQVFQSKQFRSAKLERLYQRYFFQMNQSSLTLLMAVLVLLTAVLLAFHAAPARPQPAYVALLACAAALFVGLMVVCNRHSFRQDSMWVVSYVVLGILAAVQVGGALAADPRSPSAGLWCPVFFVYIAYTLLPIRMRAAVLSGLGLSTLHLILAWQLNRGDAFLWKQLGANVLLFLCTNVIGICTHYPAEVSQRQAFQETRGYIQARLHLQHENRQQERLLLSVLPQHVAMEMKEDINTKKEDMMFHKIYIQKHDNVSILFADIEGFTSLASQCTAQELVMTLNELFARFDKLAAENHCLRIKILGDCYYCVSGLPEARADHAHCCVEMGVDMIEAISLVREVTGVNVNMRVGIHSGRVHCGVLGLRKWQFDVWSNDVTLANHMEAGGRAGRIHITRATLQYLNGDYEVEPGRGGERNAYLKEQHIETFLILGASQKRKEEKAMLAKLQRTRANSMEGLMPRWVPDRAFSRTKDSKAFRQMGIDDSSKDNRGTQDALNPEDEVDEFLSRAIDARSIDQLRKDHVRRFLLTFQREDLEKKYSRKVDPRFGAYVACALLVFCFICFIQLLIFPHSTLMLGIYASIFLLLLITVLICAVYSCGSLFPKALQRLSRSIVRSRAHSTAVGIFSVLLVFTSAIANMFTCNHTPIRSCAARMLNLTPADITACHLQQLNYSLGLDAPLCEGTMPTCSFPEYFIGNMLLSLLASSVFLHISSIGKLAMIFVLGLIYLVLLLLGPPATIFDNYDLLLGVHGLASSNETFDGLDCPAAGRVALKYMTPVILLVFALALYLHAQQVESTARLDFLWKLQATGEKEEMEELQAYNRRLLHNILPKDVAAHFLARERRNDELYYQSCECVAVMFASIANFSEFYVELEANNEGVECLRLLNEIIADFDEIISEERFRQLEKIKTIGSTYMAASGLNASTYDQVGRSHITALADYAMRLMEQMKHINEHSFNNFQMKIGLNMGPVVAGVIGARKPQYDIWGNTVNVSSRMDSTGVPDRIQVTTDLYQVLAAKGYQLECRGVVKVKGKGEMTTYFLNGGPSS

Structure (SMILES) | mAC9 activity [%] (100% = 300nM Gsα stimulation); 20µM fatty acid concentration (mAC9) | mAC8 activity [%] (100% = 300nM Gsα stimulation) (mAC8) | mAC4 activity [%] (100% = 300nM Gsα stimulation); 20µM fatty acid concentration (mAC4) | mAC2 activity [%] (100% = 300nM Gsα stimulation); 20µM fatty acid concentration (mAC2) | mAC3 activity [%] (100% = 300nM Gsα stimulation) (mAC3) | mAC7 activity [%] (100% = 300nM Gsα stimulation); 20µM fatty acid concentration (mAC7) | mAC1 activity [%] (100% = 300nM Gsα stimulation); 20µM fatty acid concentration (mAC1) | mAC6 activity [%] (100% = 300nM Gsα stimulation) (mAC6) | mAC5 activity [%] (100% = 300nM Gsα stimulation) (mAC5)
CCCC/C=C\CCCCCCCC(=O)O [Myristoleic acid, Myristoleic ((9Z)-tetradecenoic) acid] | 88% and 116% and 130% | 62% and 117% and 101% | 79% and 94% and 104% | 106% and 81% and 89% | 82% and 156% and 95% | 92% and 95% and 67% | 90% and 103% and 77% | 92% and 96% | 79% and 90% and 96%
CCCCCCCCCC(O)CCCCCCCC(=O)O (stereo not drawn) [9-HSA, 9-Hydroxystearic acid] | 93% and 157% | 67% and 108% | 134% and 93% | 89% and 75% | 104% and 110% | 161% and 83% | 95% and 93% | 122% and 118% | 100% and 102%
